Reference: ChEMBL document CHEMBL1201862, “PubChem BioAssay data set” (2004)
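The compound was tested at five concentrations on cells cultured in 96-well plates, with a 48-hour exposure period. Here, GI50 denotes the concentration required for 50% inhibition of growth.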 Active and inactive are the calls of the source. No stated cut-off is given here; in the data, active = GI50 up to about 1.1 µM and inactive = higher.

Key:
Assay in all cases: inhibition of tumour cell growth, NCI panel, 48 h
CAKI-1 = system: CAKI-1
HOP-62 = system: HOP-62
HOP-92 = system: HOP-92
Hs-578T = system: Hs-578T
K562 = system: K562
M14 = system: M14
NCI-H23 = system: NCI-H23
NCI-H460 = system: NCI-H460
OVCAR-3 = system: OVCAR-3
OVCAR-4 = system: OVCAR-4
OVCAR-5 = system: OVCAR-5
OVCAR-8 = system: OVCAR-8
PC-3 = system: PC-3
RPMI-8226 = system: RPMI-8226
SF-268 = system: SF-268
SF-295 = system: SF-295
SK-MEL-5 = system: SK-MEL-5
SW-620 = system: SW-620
T47D = system: T47D
UACC-62 = system: UACC-62

| Structure (SMILES) | GI50 (CAKI-1) | GI50 (HOP-62) | GI50 (HOP-92) | GI50 (Hs-578T) | GI50 (K562) | GI50 (M14) | GI50 (NCI-H23) | GI50 (NCI-H460) | GI50 (OVCAR-3) | GI50 (OVCAR-4) | GI50 (OVCAR-5) | GI50 (OVCAR-8) | GI50 (PC-3) | GI50 (RPMI-8226) | GI50 (SF-268) | GI50 (SF-295) | GI50 (SK-MEL-5) | GI50 (SW-620) | GI50 (T47D) | GI50 (UACC-62) |
| --- | --- | --- | --- | --- | --- | --- | --- | --- | --- | --- | --- | --- | --- | --- | --- | --- | --- | --- | --- | --- |
| NCCCNCCCCN1CC1 | 0.0486 µM (active) | 2.72 µM (inactive) | 0.745 µM (active) | 1.08 µM (active) | 2.49 µM (inactive) | 11.4 µM (inactive) | 6.7 µM (inactive) | 16.7 µM (inactive) | 1.6 µM (inactive) | 0.259 µM (active) | 12 µM (inactive) | 2.07 µM (inactive) | 5.69 µM (inactive) | 7.01 µM (inactive) | 1.99 µM (inactive) | 20 µM (inactive) | 2.25 µM (inactive) | 2.31 µM (inactive) | 0.265 µM (active) | 3.99 µM (inactive) |
| COC(=O)c1ccc(C)cc1C1CN=NC12Cc1cccc(C)c1C2=O (stereo not given) | 67.6 µM (inactive) | 71.3 µM (inactive) | 36.9 µM (inactive) | 38.3 µM (inactive) | 26.7 µM (inactive) | 19.6 µM (inactive) | 64.9 µM (inactive) | 63 µM (inactive) | 32.8 µM (inactive) | 26.5 µM (inactive) | > 100 µM (inactive) | 21.1 µM (inactive) | 22.5 µM (inactive) | 20.8 µM (inactive) | 57.1 µM (inactive) | 50 µM (inactive) | 22.2 µM (inactive) | 57.7 µM (inactive) | 24.9 µM (inactive) | 21 µM (inactive) |
| CCCCCC[C@H]([C@H](C)O)n1cnc2c(N)ncnc21 | > 100 µM (inactive) | > 100 µM (inactive) | > 100 µM (inactive) | > 100 µM (inactive) | > 100 µM (inactive) | > 100 µM (inactive) | > 100 µM (inactive) | > 100 µM (inactive) | > 100 µM (inactive) | > 100 µM (inactive) | > 100 µM (inactive) | > 100 µM (inactive) | > 100 µM (inactive) | > 100 µM (inactive) | > 100 µM (inactive) | > 100 µM (inactive) | > 100 µM (inactive) | > 100 µM (inactive) | > 100 µM (inactive) | > 100 µM (inactive) |
